Experimental data taken from patent US20240024403A1, “Compositions and Methods for Managing Weight” (Unigen, Inc., priority 2012, published 2024).

Test: High fat diet induced obesity (DIO) mouse model
Format: in vivo, C57CL/6J mice
Conditions: for Total Weight / Total Body Weight: in g (unit assumed); for Feed intake: orlistat 40 mg/kg/day oral
Description: C57CL/6J mice aged 4-6 weeks (Korea Research Institute of Bioscience & Biotechnology, Ohchang, Korea) were housed in Polycarbonate cages (five mice per cage) in a room with a 12 hr:12 hr light-dark cycle and an ambient temperature of 24° C. All the mice were fed a commercial chow diet for 1 week after arrival in the animal facility. Mice were then divided into normal and obesity groups and fed with normal diet (ND) and high fat diets (HFD) respectively. The HFD group was divided into multiple treatment groups: a high fat diet vehicle group (HFD), an orlistat (purchased as OTC drug Alli®) positive control treatment group (ORI, 40 mg/kg of animal weight, 2 times/day) and optionally a sibutramine positive control treatment group (10 mg/kg, 1 time/day). The HFD contained 340 g of fat/kg of HFD (310 g lard plus 30 g soybean oil; Harlan Laboratories, USA). The HFD was formulated to provide 60% of the total energy generated by the diet from fat by replacing carbohydrate energy with lard and soybean oil, whereas the normal diet (ND) group was fed a diet providing only 18% of the total diet energy from fat(Harlan Laboratories, USA).
Body weight was measured once each week and feed intake was measured twice per week. At the end of the experimental period, following a 12 hr. fasting period, the animals were anesthetized with ether, and blood was drawn from the abdominal vein. Liver and kidney and adipose tissues (epididymal, retroperitoneal, perirenal adipose tissues) were removed from each animal, rinsed with physiological saline, and weighed. Serum concentrations of glucose, total cholesterol, triglycerides, and LDL-cholesterol were determined using automatic analyzer (INTEGRA 400, Roche, Germany). Statistical significance of test results was measured using the Student's t-test.

[1] = DIO mice, week 2, G1 = 1,100 mg/kg orally twice a day
[2] = DIO mice, week 2, G1 = 1,200 mg/kg orally twice a day
[3] = DIO mice, week 3, G1 = 800 mg/kg orally twice a day
[4] = DIO mice, week 3, G1 = 1,100 mg/kg orally twice a day
[5] = DIO mice, week 3, G1 = 1,200 mg/kg orally twice a day
[6] = DIO mice, week 4, G1 = 800 mg/kg orally twice a day
[7] = DIO mice, week 4, G1 = 1,100 mg/kg orally twice a day
[8] = DIO mice, week 4, G1 = 1,200 mg/kg orally twice a day
[9] = DIO mice, week 5, G1 = 800 mg/kg orally twice a day
[10] = DIO mice, week 5, G1 = 1,100 mg/kg orally twice a day
[11] = DIO mice, week 5, G1 = 1,200 mg/kg orally twice a day
[12] = DIO mice, week 6, G1 = 800 mg/kg orally twice a day
[13] = DIO mice, week 6, G1 = 1,100 mg/kg orally twice a day
[14] = DIO mice, week 6, G1 = 1,200 mg/kg orally twice a day
[15] = DIO mice, week 7, G1 = 800 mg/kg orally twice a day
[16] = DIO mice, week 7, G1 = 1,100 mg/kg orally twice a day
[17] = DIO mice, week 7, G1 = 1,200 mg/kg orally twice a day
[18] = DIO mice, week 8, G1 = 800 mg/kg orally twice a day
[19] = DIO mice, week 8, G1 = 1,100 mg/kg orally twice a day
[20] = DIO mice, week 8, G1 = 1,200 mg/kg orally twice a day
[21] = Liver pathology, DIO mice, G1 = 800 mg/kg orally twice a day
[22] = Liver pathology, DIO mice, G1 = 1,100 mg/kg orally twice a day
[23] = ORI 40 mg/kg, DIO mice, end of study
[24] = ORI 40 mg/kg, mice fed a high fat diet (Table 44)
[25] = ORI 40 mg/kg, mice fed high fat diet
[26] = ORI, DIO mice, blood at end of study
[27] = blood at end of study, orlistat 40 mg/kg oral
[28] = liver pathology score, DIO mice, combination (10:1) 1100 mg/kg twice a day
[29] = liver pathology score, mice fed a high fat diet, Mutamba fractions 250 mg/kg oral 2 times per day, mean
[30] = liver pathology score, mice fed a high fat diet, Mutamba fractions 250 mg/kg oral 2 times per day, mean (table printed twice)

With CCCCCCCCCCC[C@@H](C[C@@H]1OC(=O)[C@H]1CCCCCC)OC(=O)[C@H](CC(C)C)NC=O [ORI, orlistat] the “Total Weight” value (DIO mice, week 2, G1 = 800 mg/kg orally twice a day) was 34.08, the “Weight Gain” value [1] was −6.14 and the “Total Weight” value [1] was 34.08. For the same compound, the “Weight Gain” value [2] was −6.14, the “Total Body Weight” value [2] was 34.08 and the “Total Weight” value (DIO mice, week 2, ORI group, mean, Table 134) was 31.91. For the same compound, the “Weight Gain” value (DIO mice, week 2, ORI group, mean, Table 135) was −6.69, the “Total Body Weight” value (DIO mice, week 2, ORI group, mean, Table 145) was 34.08 and the “Weight Gain” value (DIO mice, week 2, ORI group, mean, Table 146) was −6.14. For the same compound, the “Weight Gain” value [3] was −4.91, the “Total Weight” value [3] was 35.32 and the “Weight Gain” value [4] was −4.91. The “Total Weight” value [4] was 35.32, the “Weight Gain” value [5] was −4.91 and the “Total Body Weight” value [5] was 35.32. For the same compound, the “Total Weight” value (DIO mice, week 3, ORI group, mean, Table 134) was 33.34, the “Weight Gain” value (DIO mice, week 3, ORI group, mean, Table 135) was −5.27 and the “Total Body Weight” value (DIO mice, week 3, ORI group, mean, Table 145) was 35.32. The “Weight Gain” value (DIO mice, week 3, ORI group, mean, Table 146) was −4.91, the “Weight Gain” value [6] was −3.84 and the “Total Weight” value [6] was 36.38. For the same compound, the “Weight Gain” value [7] was −3.84, the “Total Weight” value [7] was 36.38 and the “Weight Gain” value [8] was −3.84. For the same compound, the “Total Body Weight” value [8] was 36.38, the “Total Weight” value (DIO mice, week 4, ORI group, mean, Table 134) was 35.14 and the “Weight Gain” value (DIO mice, week 4, ORI group, mean, Table 135) was −3.47. For the same compound, the “Total Body Weight” value (DIO mice, week 4, ORI group, mean, Table 145) was 36.38, the “Weight Gain” value (DIO mice, week 4, ORI group, mean, Table 146) was −3.84 and the “Weight Gain” value [9] was −2.57. For the same compound, the “Total Weight” value [9] was 37.65, the “Weight Gain” value [10] was −2.57 and the “Total Weight” value [10] was 37.65. For the same compound, the “Weight Gain” value [11] was −2.57, the “Total Body Weight” value [11] was 37.65 and the “Total Weight” value (DIO mice, week 5, ORI group, mean, Table 134) was 36.27. For the same compound, the “Weight Gain” value (DIO mice, week 5, ORI group, mean, Table 135) was −2.34, the “Total Body Weight” value (DIO mice, week 5, ORI group, mean, Table 145) was 37.65 and the “Weight Gain” value (DIO mice, week 5, ORI group, mean, Table 146) was −2.57. The “Weight Gain” value [12] was −1.47, the “Total Weight” value [12] was 38.75 and the “Weight Gain” value [13] was −1.47. For the same compound, the “Total Weight” value [13] was 38.75, the “Weight Gain” value [14] was −1.47 and the “Total Body Weight” value [14] was 38.75. The “Total Weight” value (DIO mice, week 6, ORI group, mean, Table 134) was 37.52, the “Weight Gain” value (DIO mice, week 6, ORI group, mean, Table 135) was −1.08 and the “Total Body Weight” value (DIO mice, week 6, ORI group, mean, Table 145) was 38.75. The “Weight Gain” value (DIO mice, week 6, ORI group, mean, Table 146) was −1.47, the “Weight Gain” value [15] was −0.26 and the “Total Weight” value [15] was 39.96. For the same compound, the “Weight Gain” value [16] was −0.26, the “Total Weight” value [16] was 39.96 and the “Weight Gain” value [17] was −0.26. The “Total Body Weight” value [17] was 39.96, the “Total Weight” value (DIO mice, week 7, ORI group, mean, Table 134) was 38.62 and the “Weight Gain” value (DIO mice, week 7, ORI group, mean, Table 135) was 0.02. For the same compound, the “Total Body Weight” value (DIO mice, week 7, ORI group, mean, Table 145) was 39.96, the “Weight Gain” value (DIO mice, week 7, ORI group, mean, Table 146) was −0.26 and the “Weight Gain” value [18] was −0.23. For the same compound, the “Total Weight” value [18] was 39.99, the “Weight Gain” value [19] was −0.23 and the “Total Weight” value [19] was 39.99. The “Weight Gain” value [20] was −0.23, the “Total Body Weight” value [20] was 39.99 and the “Total Body Weight” value (DIO mice, week 8, ORI group, mean, Table 145) was 39.99. The “Weight Gain” value (DIO mice, week 8, ORI group, mean, Table 146) was −0.23, the “Hepatocellular ballooning (0-2)” value [21] was 0.33 and the “Lobular Inflammation (0-3)” value [21] was 1.50. The “NASH (sum)” value [21] was 2.17, the “Steatosis (0-3)” value [21] was 0.33 and the “Hepatocellular ballooning (0-2)” value [22] was 0.33. For the same compound, the “Lobular Inflammation (0-3)” value [22] was 1.50, the “NSAH (sum)” value [22] was 2.17 and the “Steatosis (0-3)” value [22] was 0.33. The Organ Weight: Epididymal Fat [23] was 1.92 g, the Organ Weight: Liver [23] was 1.12 g and the Organ Weight: Perirenal Fat [23] was 0.33 g. For the same compound, the Organ Weight: Retroperitoneal Fat [23] was 0.47 g, the Organ Weight: Total Fat [23] was 2.73 g and the “Average Body Weight Gain” value [24] was -0.031 g/day. The “Average Food Intake” value [24] was 2.711 g/day, the “Food Efficiency Ratio (FER)” value [24] was −0.011 and the “Average Body Weight Gain” value [25] was -0.031 g/day. For the same compound, the “Average Food Intake” value [25] was 2.711 g/day, the “Food Efficiency Ratio (FER)” value (ORI 40 mg/kg, mice fed high fat diet, body weight gain (g/day)/food intake (g/day)) was −0.011 and the “Total Body Weight” value (ORI 40 mg/kg, week 0) was 42.76. For the same compound, the “Total Body Weight” value (ORI 40 mg/kg, week 1) was 38.73, the “Total Body Weight” value (ORI 40 mg/kg, week 2) was 35.09 and the “Total Body Weight” value (ORI 40 mg/kg, week 3) was 35.66. For the same compound, the “Total Body Weight” value (ORI 40 mg/kg, week 4) was 37.28, the “Total Body Weight” value (ORI 40 mg/kg, week 5) was 38.57 and the “Total Body Weight” value (ORI 40 mg/kg, week 6) was 40.03. The “Total Body Weight” value (ORI 40 mg/kg, week 7) was 40.91, the “F-Glu (fasting glucose)” value [26] was 222.43 mg/dL and the “LDL-C (LDL-cholesterol)” value [26] was 4.27 mg/dL. For the same compound, the “T-Chol (total cholesterol)” value [26] was 134.57 mg/dL, the ALT [27] was 21.83 U/L and the AST [27] was 65.65 U/L. It also gave an LDL-C [27] of 4.03 mg/dL, a T-chol [27] of 137.33 mg/dL and a TG [27] of 27.83 mg/dL. It also gave a Feed intake (day 4) of 2.23 g/day, a Feed intake (day 7) of 2.56 g/day and a Feed intake (day 11) of 3.01 g/day. For the same compound, the Feed intake (day 14) was 3.18 g/day, the Feed intake (day 21) was 3.27 g/day and the Feed intake (day 25) was 3.27 g/day. For the same compound, the Feed intake (day 28) was 3.44 g/day, the Feed intake (day 32) was 3.27 g/day and the Feed intake (day 35) was 3.35 g/day. It also gave a Feed intake (day 39) of 3.17 g/day, a Feed intake (day 42) of 3.43 g/day and a Feed intake (day 46) of 3.18 g/day. For the same compound, the Feed intake (day 49) was 3.54 g/day, the Feed intake (day 53) was 3.17 g/day and the weight decrease (end of the 8 week treatment) was 0.23 gram. For the same compound, the “NASH (sum)” value (liver pathology score sum, DIO mice, combination (10:1) 1100 mg/kg twice a day) was 3.40, the “Hepatocellular ballooning (0-2)” value [28] was 1.00 and the “Lobular Inflammation (0-3)” value [28] was 1.40. The “Steatosis (0-3)” value [28] was 1.00, the “Hepatocellular ballooning (0-2)” value [29] was 0.80 and the “Lobular Inflammation (0-3)” value [29] was 1.60. For the same compound, the “Steatosis (0-3)” value [29] was 1.00, the “Hepatocellular ballooning (0-2)” value [30] was 0.80 and the “Lobular Inflammation (0-3)” value [30] was 1.60. The “Steatosis (0-3)” value [30] was 1.00, the “NSAH (sum)” value (liver pathology, sum of scores, mice fed a high fat diet, Mutamba fractions 250 mg/kg oral 2 times per day, mean) was 3.40 and the “NSAH (sum)” value (liver pathology, sum of scores, mice fed a high fat diet, Mutamba fractions 250 mg/kg oral 2 times per day, mean (table printed twice)) was 3.40.
